How the values were obtained:
[1] = Metabolic stability in rat liver microsomal fraction; assay type: in vitro ADME; settings: liver microsomes, 37° C., phase I cofactors; for microsomal CLint: read-out: Cl(int)
Description: Tested compounds were incubated in triplicates with rat liver microsomal fraction at 37° C. in the presence of metabolic phase I cofactors (NADP, G6P, G6P dehydrogenase, MgCl2) necessary for metabolic transformations. Concentration of a non-metabolized tested compound in the reaction mixture was measured using LC/MS method at 4 time points: after 0, 20, 40 and 60 min of incubation. The AUC of compounds at those time points were compared with AUC at point 0 to obtain % loss of parental compound. The obtained data were used for calculation of internal clearance (Cl(int)) and half-life (T½). The metabolic activity of microsomes was assessed by measuring the stability of two standards with low and high metabolic stability, propranolol and donepezil, respectively.

[2] = biological target: Recombinant human phosphodiesterase 10A (PDE10A) (Homo sapiens (Human), UniProt Q9Y233); assay: Assay of phosphodiesterase 10 inhibition in vitro (PDE-Glo luminescent method); assay type: biochemical; settings: averaged IC50 values, read-out: hPDE10A1 IC50
Chain of Recombinant human phosphodiesterase 10A (PDE10A) (Q9Y233 267-1055): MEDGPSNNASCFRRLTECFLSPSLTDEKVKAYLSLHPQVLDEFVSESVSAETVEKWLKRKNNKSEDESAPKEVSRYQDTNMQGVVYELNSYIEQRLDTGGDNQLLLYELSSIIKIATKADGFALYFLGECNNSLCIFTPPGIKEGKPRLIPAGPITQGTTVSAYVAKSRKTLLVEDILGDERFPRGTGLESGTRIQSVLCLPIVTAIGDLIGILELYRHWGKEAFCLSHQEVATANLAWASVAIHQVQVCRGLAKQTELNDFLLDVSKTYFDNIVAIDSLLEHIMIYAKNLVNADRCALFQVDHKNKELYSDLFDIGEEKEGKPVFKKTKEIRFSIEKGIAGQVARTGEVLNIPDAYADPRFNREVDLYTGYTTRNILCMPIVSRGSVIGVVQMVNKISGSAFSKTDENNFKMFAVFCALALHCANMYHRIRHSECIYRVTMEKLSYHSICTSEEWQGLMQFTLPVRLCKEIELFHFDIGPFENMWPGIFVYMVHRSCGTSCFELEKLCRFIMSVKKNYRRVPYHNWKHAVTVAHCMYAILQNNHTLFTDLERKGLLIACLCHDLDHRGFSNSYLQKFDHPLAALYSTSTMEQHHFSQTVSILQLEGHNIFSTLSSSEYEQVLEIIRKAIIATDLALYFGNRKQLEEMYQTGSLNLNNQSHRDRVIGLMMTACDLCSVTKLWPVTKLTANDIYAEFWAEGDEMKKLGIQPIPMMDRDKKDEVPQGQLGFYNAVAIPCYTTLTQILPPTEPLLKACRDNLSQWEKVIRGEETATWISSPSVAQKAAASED
Description: 1. Assay of Phosphodiesterase 10 Inhibition In Vitro
Recombinant human phosphodiesterase 10A (PDE10A) purified to homogeneity from Sf9 cells overexpressing PDE10A gene (GenBank/EMBL accession number: NM_001130690) was used for inhibition tests.
Inhibitory activity of the compounds towards PDE10A was tested using PDE-Glo (Promega Corporation, Madison, USA) luminescent method on 96-well plates. Test was performed for 8 concentrations of the compounds. Test compounds were dissolved in 100% DMSO and resulted solutions were diluted 5× in concentrated PDE-Glo Reaction Buffer. Eight concentrations of each tested compound were obtained by subsequent dilution. 5 μl of obtained solutions were added into the wells of 96-well plate. Next, 7.5 μl of a solution containing […] enzyme diluted in 1× concentrated PDE-Glo Reaction Buffer were added into the well to obtain the final amount of 2-10 ng (depending on the activity of the enzyme batch used in the study). In order to facilitate interaction between compounds and the enzyme, plates were incubated for 1 minute at room temperature and then 9 minutes at 4° C. Reaction was initiated by addition of 12.5 μl of 2 μM cAMP solution into the well and subsequently plate was incubated at 30° C.
After 40 minutes reaction was stopped by addition of 12.5 μl of PDE-Glo Termination Buffer with high concentration of a known PDE10 inhibitor. Plate content was stirred with orbital shaker at 500 RPMs for 10 minutes and then in the next step 12.5 μl of freshly prepared PDE-Glo Detection Solution were added into the well.
Plate was incubated for 20 minutes at room temperature before 50 μl of Kinase Glo reagent (Promega Corporation, Madison, USA) was applied into the wells and incubation at room temperature was continued for the next 10 minutes. After incubation, luminescence intensity in wells was measured with the Victor Light (Perkin Elmer Inc.) luminometer.
Percent of PDE10A inhibition by tested compounds was determined based on luminescence intensity measurements in wells containing test compounds and in control wells. Results were then fitted using a four-parameter logistic fit in GraphPad Prism 5.03 software (GraphPad Software Inc.). Negative control wells contained all above mentioned reagents except test compounds and positive control wells contained all above mentioned reagents except test compounds and the PDE10A enzyme. Each chemical compound was assayed in at least two independent runs (2×96-well plate in duplicate) with at least 3 wells of each of the controls.

Structure (SMILES) | half-life [1] | microsomal CLint [1] | IC50 [2]
Cc1ncc(C)n2nc(-c3ccn4cc(-c5ccccc5)nc4c3)nc12 [Ex. 1 of WO2013003298, reference compound] | 0.559 h | 68.9 µL/min/mg | –
Cc1ncc(C)n2nc(-c3ccc4[nH]c(-c5ccccc5F)nc4c3)nc12 [Example 2, 2-[2-(2-Fluorophenyl)-1H-benzo[d]imidazol-5-yl]-5,8-dimethyl-[1,2,4]-triazolo[1,5-a]pyrazine] | – | – | 37 nM
Cc1cc(C)n2nc(-c3ccc4[nH]c(-c5ccccn5)nc4c3)nc2n1 [Example 3, 5,7-Dimethyl-2-[2-(pyridin-2-yl)-1H-benzo[d]imidazol-5-yl]-[1,2,4]triazolo[1,5-a]pyrimidine] | – | – | 279 nM
Cc1cc(C)n2nc(-c3ccc4[nH]c(-c5ccncc5)nc4c3)nc2n1 [Example 5, 5,7-Dimethyl-2-[2-(pyridin-4-yl)-1H-benzimidazol-5-yl][1,2,4]triazolo[1,5-a]pyrimidine] | – | – | 953 nM
Cc1ncc(C)n2nc(-c3ccc4[nH]c(-c5cccc(F)c5)nc4c3)nc12 [Example 6, 2-[2-(3-Fluorophenyl)-1H-benzimidazol-5-yl]-5,8-dimethyl[1,2,4]triazolo[1,5-a]pyrazine] | – | – | 172 nM
Cc1ncc(C)n2nc(-c3ccc4[nH]c(-c5ccc(F)cc5)nc4c3)nc12 [Example 7, 2-[2-(4-Fluorophenyl)-1H-benzimidazol-5-yl]-5,8-dimethyl[1,2,4]triazolo[1,5-a]pyrazine] | – | – | 54 nM
COc1ccccc1-c1nc2cc(-c3nc4c(C)ncc(C)n4n3)ccc2[nH]1 [Example 41, 2-[2-(2-Methoxyphenyl)-1H-benzimidazol-5-yl]-5,8-dimethyl[1,2,4]triazolo[1,5-a]-pyrazine] | – | – | 19.5 nM
Cc1cc(C)n2nc(-c3ccc4c(c3)nc(-c3ccccc3)n4C)nc2n1 [Example 48A, 5,7-Dimethyl-2-(1-methyl-2-phenyl-1H-benzo[d]imidazol-5-yl)-[1,2,4]-triazolo[1,5-a]pyrimidine] | – | – | 794 nM
Cc1cc(C)n2nc(-c3ccc4nc(-c5ccccc5)n(C)c4c3)nc2n1 [Example 48B, 5,7-Dimethyl-2-(1-methyl-2-phenyl-1H-benzo[d]imidazol-6-yl)-[1,2,4]-triazolo[1,5-a]pyrimidine] | – | – | 413 nM
Cc1ncc(C)n2nc(-c3ccn4cc(-c5ccccc5)nc4n3)nc12 [Example 57, 5,8-Dimethyl-2-(2-phenylimidazo[1,2-a]pyrimidin-7-yl)[1,2,4]triazolo[1,5-a]pyrazine] | 1.1 h | 34.9 µL/min/mg | 35.7 nM

Now from value to molecule:

half-life [1] | microsomal CLint [1] | IC50 [2] | Structure (SMILES)
– | – | 47 nM | Cc1cc(C)n2nc(-c3ccc4[nH]c(-c5ccccc5)nc4c3)nc2n1 [Example 1, 5,7-Dimethyl-2-(2-phenyl-1H-benzo[d]imidazol-5-yl)-[1,2,4]triazolo-[1,5-a]pyrimidine]
1.05 h | 36.8 µL/min/mg | 27 nM | Cc1ncc(C)n2nc(-c3ccc4[nH]c(-c5ccccc5)nc4c3)nc12 [Example 4, 5,8-Dimethyl-2-(2-phenyl-1H-benzimidazol-5-yl)[1,2,4]triazolo[1,5-a]pyrazine]
– | – | 84 nM | Cc1ncc(C)n2nc(-c3ccc4[nH]c(-c5nccs5)nc4c3)nc12 [Example 8, 5,8-Dimethyl-2-[2-(1,3-thiazol-2-yl)-1H-benzimidazol-5-yl][1,2,4]triazolo[1,5-a]pyrazine]
– | – | 63 nM | Cc1ncc(C)n2nc(-c3ccc4[nH]c(-c5ccccn5)nc4c3)nc12 [Example 40, 5,8-Dimethyl-2-[2-(pyridin-2-yl)-1H-benzimidazol-5-yl][1,2,4]triazolo[1,5-a]pyrazine]
– | – | 96 nM | Cc1cc(C)n2nc(-c3ccn4cc(-c5ccccc5)nc4n3)nc2n1 [Example 56, 5,7-Dimethyl-2-(2-phenylimidazo[1,2-a]pyrimidin-7-yl)[1,2,4]triazolo-[1,5-a]pyrimidine]
